Measured values reported in patent US20200325177A1, “METHODS OF MAKING STREPTOGRAMIN COMPOSITIONS AND THE USE THEREOF” (THE REGENTS OF THE UNIVERSITY OF CALIFORNIA, priority 2017, published 2020).
Values after ≈ are worked out from the molar mass of the structure shown. Like-named read-outs stand apart in the source and are kept apart here.

Experiments:
Type in all cases: cell-based
[1] = tested on: H. influenzae ATCC 49247; test: MIC, Gram-negative bacteria: H. influenzae ATCC 49247; conditions: Haemophilus influenzae, ATCC49247, read-out: Minimal Inhibitory Concentration (MIC) H. influenzae ATCC 49247
[2] = tested on: E. faecium VRE; vanA; test: MIC, Gram-positive bacteria: E. faecium VRE; vanA; conditions: Enterococcus faecium, column 3, read-out: Minimal Inhibitory Concentration (MIC) E. faecium VRE
[3] = tested on: S. pneumoniae; test: MIC, Gram-positive bacteria: S. pneumoniae; conditions: Streptococcus pneumoniae, column 10, read-out: Minimal Inhibitory Concentration (MIC) S. pneumoniae
[4] = tested on: P. aeruginosa MDR clinical isolate; test: MIC, Gram-negative bacteria: P. aeruginosa MDR clinical isolate; conditions: Pseudomonas aeruginosa, read-out: Minimal Inhibitory Concentration (MIC) P. aeruginosa MDR clinical isolate
[5] = tested on: S. aureus; test: MIC, Gram-positive bacteria: S. aureus (strains not named); conditions: Staphylococcus aureus, read-out: Minimal Inhibitory Concentration (MIC) S. aureus
[6] = tested on: K. pneumoniae multidrug-resistant; test: MIC, Gram-negative bacteria: K. pneumoniae multidrug-resistant; conditions: Klebsiella pneumoniae, read-out: Minimal Inhibitory Concentration (MIC) K. pneumoniae multidrug-resistant
[7] = tested on: E. faecium ATCC 35667; test: MIC, Gram-positive bacteria: E. faecium ATCC 35667; conditions: Enterococcus faecium, ATCC35667, column 2, read-out: Minimal Inhibitory Concentration (MIC) E. faecium ATCC 35667
[8] = tested on: P. aeruginosa ATCC 27853; test: MIC, Gram-negative bacteria: P. aeruginosa ATCC 27853; conditions: Pseudomonas aeruginosa, ATCC27853, read-out: Minimal Inhibitory Concentration (MIC) P. aeruginosa ATCC 27853
[9] = tested on: E. faecalis; test: MIC, Gram-positive bacteria: E. faecalis; conditions: Enterococcus faecalis, column 1, read-out: Minimal Inhibitory Concentration (MIC) E. faecalis
[10] = tested on: S. aureus Vat A streptogramin; test: MIC, Gram-positive bacteria: S. aureus Vat A streptogramin; conditions: Staphylococcus aureus; Gram-positive; column 5; read-out: Minimal Inhibitory Concentration (MIC) S. aureus Vat A streptogramin
[11] = tested on: S. aureus Linezolid-resistant; cfr; test: MIC, Gram-positive bacteria: S. aureus Linezolid-resistant; cfr; conditions: Staphylococcus aureus, column 9, read-out: Minimal Inhibitory Concentration (MIC) S. aureus Linezolid-resistant
[12] = tested on: Gram-Negative Organisms; test: microbe, parasite or virus in culture
[13] = first unnamed S. aureus column (c4)
[14] = fourth unnamed S. aureus column (c8)
[15] = second unnamed S. aureus column (c6)
[16] = third unnamed S. aureus column (c7)
[17] = Acinetobacter baumannii, ATCC19606, read-out: Minimal Inhibitory Concentration (MIC), A. baumannii ATCC 19606
[18] = Escherichia coli, ATCC25922, read-out: Minimal Inhibitory Concentration (MIC), E. coli ATCC 25922
[19] = Escherichia coli, read-out: Minimal Inhibitory Concentration (MIC), E. coli BAS2006, OMP C, OMP F
[20] = Escherichia coli, read-out: Minimal Inhibitory Concentration (MIC), E. coli olC efflux defective
[21] = Escherichia coli, read-out: Minimal Inhibitory Concentration (MIC), E. coli permeability mutant BAS1314, IMP4213ZAB::TN10
[22] = Escherichia coli, read-out: Minimal Inhibitory Concentration (MIC), E. coli ΔompC768, KanR insert
[23] = Klebsiella pneumoniae, ATCC43816, read-out: Minimal Inhibitory Concentration (MIC), K. pneumoniae ATCC 43816

Structure (SMILES) | MIC [1] [µg/mL] | MIC [2] [µg/mL] | MIC [3] [µg/mL] | MIC [4] [µg/mL] | MIC [5, 13] [µg/mL] | MIC [5, 14] [µg/mL] | MIC [5, 15] [µg/mL] | MIC [5, 16] [µg/mL] | MIC [6] [µg/mL] | MIC [7] [µg/mL] | MIC [8] [µg/mL] | MIC [9] [µg/mL] | MIC [10] [µg/mL] | MIC [11] [µg/mL] | MIC [12, 17] [µg/mL] | MIC [12, 18] [µg/mL] | MIC [12, 19] [µg/mL] | MIC [12, 20] [µg/mL] | MIC [12, 21] [µg/mL] | MIC [12, 23] [µg/mL] | other results
CC1=C\[C@@H](O)CC(=O)Cc2nc(co2)C(=O)N2CCC[C@@H]2C(=O)O[C@H]([C@H](C)COC(=O)Nc2ccccc2)[C@H](C)/C=C/C(=O)NC\C=C\1 [SA0110196] | 16 (≈ 24.1 µM) | 64 (≈ 96.6 µM) | 32 (≈ 48.3 µM) | > 64 | 32 (≈ 48.3 µM) | 16 (≈ 24.1 µM) | 32 (≈ 48.3 µM) | 64 (≈ 96.6 µM) | > 64 | 16 (≈ 24.1 µM) | > 64 | > 64 | > 64 | > 64 | > 64 | > 64 | 32 (≈ 48.3 µM) | 2 (≈ 3.02 µM) | 8 (≈ 12.1 µM) | > 64 | MIC [12, 22]: > 64 µg/mL
CC1=C\[C@@H](O)CC(=O)Cc2nc(co2)C(=O)N2CCC[C@@H]2C(=O)O[C@H]([C@H](C)COC(=O)Nc2ccc(OC(F)(F)F)cc2)[C@H](C)/C=C/C(=O)NC\C=C\1 [SA0110195] | > 64 | > 64 | > 64 | > 64 | 16 (≈ 21.4 µM) | 8 (≈ 10.7 µM) | 16 (≈ 21.4 µM) | 16 (≈ 21.4 µM) | > 64 | 8 (≈ 10.7 µM) | > 64 | > 64 | > 64 | > 64 | > 64 | > 64 | > 64 | 8 (≈ 10.7 µM) | 8 (≈ 10.7 µM) | > 64 | MIC [12, 22]: > 64 µg/mL
CC1=C\[C@@H](O)CC(=O)Cc2nc(co2)C(=O)N2CCC=C2C(=O)O[C@H](C(C)C)[C@H](C)/C=C/C(=O)NC\C=C\1 [virginiamycin M1, Virginiamycin M1, reference compound] | 1 (≈ 1.9 µM) | 4 (≈ 7.61 µM) | 4 (≈ 7.61 µM) | > 64 | 4 (≈ 7.61 µM) | 2 (≈ 3.81 µM) | 2 (≈ 3.81 µM) | 8 (≈ 15.2 µM) | > 64 | 2 (≈ 3.81 µM) | > 64 | 32 (≈ 60.9 µM) | 32 (≈ 60.9 µM) | > 64 | > 64 | > 64 | > 64 | 2 (≈ 3.81 µM) | 0.25 (≈ 0.476 µM) | > 64 | 
CC1=C\[C@@H](O)CC(=O)Cc2nc(co2)C(=O)N2CCC[C@@H]2C(=O)O[C@H]([C@H](C)COC(=O)Nc2ccccn2)[C@H](C)/C=C/C(=O)NC\C=C\1 [SA0110222] | 16 (≈ 24.1 µM) | 64 (≈ 96.4 µM) | 32 (≈ 48.2 µM) | > 64 | > 64 | 64 (≈ 96.4 µM) | > 64 | > 64 | > 64 | 32 (≈ 48.2 µM) | > 64 | > 64 | > 64 | > 64 | > 64 | > 64 | 64 (≈ 96.4 µM) | 4 (≈ 6.03 µM) | 16 (≈ 24.1 µM) | > 64 | MIC [12, 22]: > 64 µg/mL
CC1=C\[C@@H](O)CC(=O)Cc2nc(co2)C(=O)N2CCC[C@@H]2C(=O)O[C@H]([C@@H](C)COC(=O)Nc2ccc(F)cc2)[C@H](C)/C=C/C(=O)NC\C=C\1 [SA0110036] | > 64 | 32 (≈ 47 µM) | 16 (≈ 23.5 µM) | > 64 | 32 (≈ 47 µM) | 16 (≈ 23.5 µM) | 32 (≈ 47 µM) | > 64 | > 64 | 8 (≈ 11.8 µM) | > 64 | > 64 | > 64 | > 64 | > 64 | > 64 | 8 (≈ 11.8 µM) | 2 (≈ 2.94 µM) | 8 (≈ 11.8 µM) | > 64 | 
CC1=C\[C@@H](O)C[C@@H](F)Cc2nc(cs2)C(=O)N2CCC[C@@H]2C(=O)O[C@H](C(C)C)[C@H](C)/C=C/C(=O)NC\C=C\1 [SA0110279] | 0.25 (≈ 0.456 µM) | 1 (≈ 1.83 µM) | 1 (≈ 1.83 µM) | > 64 | 0.5 (≈ 0.913 µM) | 0.5 (≈ 0.913 µM) | 0.5 (≈ 0.913 µM) | 1 (≈ 1.83 µM) | > 64 | 0.5 (≈ 0.913 µM) | > 64 | > 64 | 8 (≈ 14.6 µM) | > 64 | > 64 | 32 (≈ 58.4 µM) | 0.25 (≈ 0.456 µM) | 1 (≈ 1.83 µM) | < 0.06 | > 64 | MIC [12, 22]: 32 µg/mL (≈ 58.4 µM)
CC1=C\[C@@H](O)CC(=O)Cc2nc(co2)C(=O)N2CCC[C@@H]2C(=O)O[C@H]([C@H](C)COC(=O)Nc2ccc(C(F)(F)F)cc2)[C@H](C)/C=C/C(=O)NC\C=C\1 [SA0110193] | > 64 | > 64 | > 64 | > 64 | 8 (≈ 10.9 µM) | 8 (≈ 10.9 µM) | 8 (≈ 10.9 µM) | 16 (≈ 21.9 µM) | > 64 | 8 (≈ 10.9 µM) | > 64 | > 64 | 16 (≈ 21.9 µM) | > 64 | > 64 | > 64 | > 64 | 8 (≈ 10.9 µM) | 4 (≈ 5.47 µM) | > 64 | MIC [12, 22]: > 64 µg/mL
CC1=C\[C@@H](O)CC(=O)Cc2nc(co2)C(=O)N2CCC[C@@H]2C(=O)O[C@H]([C@H](C)COC(=O)Nc2ccc3ccccc3n2)[C@H](C)/C=C/C(=O)NC\C=C\1 [SA0110223] | 8 (≈ 11.2 µM) | 16 (≈ 22.4 µM) | 32 (≈ 44.8 µM) | > 64 | 8 (≈ 11.2 µM) | 4 (≈ 5.6 µM) | 8 (≈ 11.2 µM) | 16 (≈ 22.4 µM) | > 64 | 4 (≈ 5.6 µM) | > 64 | > 64 | 32 (≈ 44.8 µM) | > 64 | > 64 | > 64 | 16 (≈ 22.4 µM) | 2 (≈ 2.8 µM) | 2 (≈ 2.8 µM) | > 64 | MIC [12, 22]: > 64 µg/mL
CC1=C\[C@@H](O)CC(=O)Cc2nc(co2)C(=O)N2CCC[C@@H]2C(=O)O[C@H]([C@H](C)COC(=O)Nc2ccn(C)n2)[C@H](C)/C=C/C(=O)NC\C=C\1 [SA0110218] | 32 (≈ 48 µM) | > 64 | > 64 | > 64 | > 64 | > 64 | > 64 | > 64 | > 64 | > 64 | > 64 | > 64 | > 64 | > 64 | > 64 | > 64 | > 64 | 16 (≈ 24 µM) | 32 (≈ 48 µM) | > 64 | MIC [12, 22]: > 64 µg/mL
CC1=C\[C@@H](O)CC(=O)Cc2nc(co2)C(=O)N[C@H](C)C(=O)O[C@H](C(C)C)[C@H](C)/C=C/C(=O)NC\C=C\1 [madumycin I, Madumycin I, reference compound] | 8 (≈ 15.9 µM) | 4 (≈ 7.97 µM) | 4 (≈ 7.97 µM) | > 64 | 8 (≈ 15.9 µM) | 4 (≈ 7.97 µM) | 8 (≈ 15.9 µM) | 8 (≈ 15.9 µM) | > 64 | 2 (≈ 3.99 µM) | > 64 | 32 (≈ 63.8 µM) | 64 (≈ 128 µM) | 64 (≈ 128 µM) | > 64 | > 64 | 0.5 (≈ 0.997 µM) | 2 (≈ 3.99 µM) | 0.25 (≈ 0.498 µM) | > 64 | 
CC1=C\[C@@H](O)CC(=O)Cc2nc(co2)C(=O)N2CCC[C@@H]2C(=O)O[C@H]([C@@H](C)COC(=O)Nc2ccccn2)[C@H](C)/C=C/C(=O)NC\C=C\1 [SA0110120] | 32 (≈ 48.2 µM) | 64 (≈ 96.4 µM) | 16 (≈ 24.1 µM) | > 64 | 64 (≈ 96.4 µM) | 32 (≈ 48.2 µM) | 64 (≈ 96.4 µM) | > 64 | > 64 | 32 (≈ 48.2 µM) | > 64 | > 64 | > 64 | > 64 | > 64 | > 64 | 32 (≈ 48.2 µM) | 4 (≈ 6.03 µM) | 8 (≈ 12.1 µM) | > 64 | 
